Laboratory results published in US9175003B2, “Substituted azoanthracene derivatives and intermediates for preparation thereof” (TransTech Pharma, LLC, priority 2009, dated 2015).

These molecules were tested against human GLP-1 receptor (Homo sapiens (Human), UniProt P43220). Conditions: read-out: Mean EC50; cAMP, HTRF detection, 30 min at 37° C., HEK-293 cells expressing cloned human GLP-1 receptor.
Sequence of human GLP-1 receptor (P43220 24-463): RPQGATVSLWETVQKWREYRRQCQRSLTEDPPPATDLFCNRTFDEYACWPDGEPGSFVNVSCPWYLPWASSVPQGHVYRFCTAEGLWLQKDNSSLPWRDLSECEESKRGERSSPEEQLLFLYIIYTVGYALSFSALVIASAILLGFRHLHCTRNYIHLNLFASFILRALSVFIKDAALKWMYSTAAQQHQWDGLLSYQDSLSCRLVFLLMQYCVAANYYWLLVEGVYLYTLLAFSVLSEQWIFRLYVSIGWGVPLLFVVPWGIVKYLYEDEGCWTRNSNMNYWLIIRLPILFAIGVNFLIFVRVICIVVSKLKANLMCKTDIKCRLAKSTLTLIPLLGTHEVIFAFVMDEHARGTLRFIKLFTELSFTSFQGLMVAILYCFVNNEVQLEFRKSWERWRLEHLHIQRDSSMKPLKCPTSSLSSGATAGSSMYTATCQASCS

Compound | EC50
Cc1nc(C)c(C(=O)N2Cc3cc4c(cc3C[C@H]2C(=O)N[C@@H](Cc2ccc(-c3ccnc(C)c3C)cc2)C(=O)O)OC[C@H](c2ccc(OCc3ccc(Cl)c(Cl)c3)cc2)O4)o1 [Example 432, (S)-2-{[(3S,8S)-3-[4-(3,4-Dichloro-benzyloxy)-phenyl]-7-(2,4-dimethyl-oxazole-5-carbonyl)-2,3,6,7,8,9-hexahydro-[1,4]dioxino[2,3-g]isoquinoline-8-carbonyl]-amino}-3-[4-(2,3-dimethyl-pyridin-4-yl)-phenyl]-propionic acid] | 21 nM
Cc1nccc(Oc2ccc(C[C@H](NC(=O)[C@@H]3Cc4cc5c(cc4CN3S(=O)(=O)C(C)C)O[C@@H](c3ccc(OCc4ccc(Cl)c(Cl)c4)cc3)CO5)C(=O)O)cc2)c1C [Example 436, (S)-2-{[(3S,8S)-3-[4-(3,4-Dichloro-benzyloxy)-phenyl]-7-(propane-2-sulfonyl)-2,3,6,7,8,9-hexahydro-[1,4]dioxino[2,3-g]isoquinoline-8-carbonyl]-amino}-3-[4-(2,3-dimethyl-pyridin-4-yloxy)-phenyl]-propionic acid] | 320 nM
Cc1nc(C(=O)N2Cc3cc4c(cc3C[C@H]2C(=O)N[C@@H](Cc2ccc(-c3ccc(F)cc3)cc2)C(=O)O)OC[C@H](c2ccc(OCc3ccc(Cl)c(Cl)c3)cc2)O4)c(C)o1 [Example 440, (S)-2-{[(3S,8S)-3-[4-(3,4-Dichloro-benzyloxy)-phenyl]-7-(2,5-dimethyl-oxazole-4-carbonyl)-2,3,6,7,8,9-hexahydro-[1,4]dioxino[2,3-g]isoquinoline-8-carbonyl]-amino}-3-(4′-fluoro-biphenyl-4-yl)-propionic acid] | 387 nM

Second part, the molecule after the results:

EC50 | Compound
31 nM | Cc1nc(C(=O)N2Cc3cc4c(cc3C[C@H]2C(=O)N[C@@H](Cc2ccc(-c3ccnc(C)c3C)cc2)C(=O)O)OC[C@H](c2ccc(OCc3ccc(Cl)c(Cl)c3)cc2)O4)co1 [Example 431, (S)-2-{[(3S,8S)-3-[4-(3,4-Dichloro-benzyloxy)-phenyl]-7-(2-methyl-oxazole-4-carbonyl)-2,3,6,7,8,9-hexahydro-[1,4]dioxino[2,3-g]isoquinoline-8-carbonyl]-amino}-3-[4-(2,3-dimethyl-pyridin-4-yl)-phenyl]-propionic acid]
37 nM | Cc1nccc(-c2ccc(C[C@H](NC(=O)[C@@H]3Cc4cc5c(cc4CN3C(=O)NC3(C)CCCCC3)O[C@@H](c3ccc(OCc4ccc(Cl)c(Cl)c4)cc3)CO5)C(=O)O)cc2)c1C [Example 438, (S)-2-{[(3S,8S)-3-[4-(3,4-Dichloro-benzyloxy)-phenyl]-7-(1-methyl-cyclohexylcarbamoyl)-2,3,6,7,8,9-hexahydro-[1,4]dioxino[2,3-g]isoquinoline-8-carbonyl]-amino}-3-[4-(2,3-dimethyl-pyridin-4-yl)phenyl]-propionic acid]
208 nM | Cc1nccc(-c2ccc(C[C@H](NC(=O)[C@@H]3Cc4cc5c(cc4CN3C(=O)c3ccccc3)O[C@@H](c3ccc(OCC4CCCCC4)cc3)CO5)C(=O)O)cc2)c1C [Example 442, (S)-2-{[(3S,8S)-7-Benzoyl-3-(4-cyclohexylmethoxy-phenyl)-2,3,6,7,8,9-hexahydro-[1,4]dioxino[2,3-g]isoquinoline-8-carbonyl]-amino}-3-[4-(2,3-dimethyl-pyridin-4-yl)-phenyl]-propionic acid]
